In patent US20240150334A1, “HSD17B13 INHIBITORS AND/OR DEGRADERS” (Pfizer Inc., priority 2022, published 2024) one finds IC50 data, which are given here for 25 molecules.

One experiment deals with HSD17B13 enzyme (Homo sapiens (Human), UniProt Q7Z5P4). Put plainly: hHSD17B13 IC50 Assay (FAC beta-estradiol), purified protein enzyme activity assay with NAD(P)H-Glo luciferase readout. It counts as biochemical. The conditions noted are these: geometric mean, 12 μM FAC beta-estradiol, 500 μM NAD+, read-out: hHSD17B13_IC50 GMean IC50. Summed up: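 Purified human HSD17B13 (30 nM FAC) incubated with compound, beta-estradiol and NAD+ for 2 h at room temperature in the dark. NADH formation was detected by NAD(P)H-Glo luminescence after 1 h. RLUs normalized to uninhibited enzyme (vehicle) as zero effect.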
HSD17B13 enzyme, sequence (Q7Z5P4 20-300): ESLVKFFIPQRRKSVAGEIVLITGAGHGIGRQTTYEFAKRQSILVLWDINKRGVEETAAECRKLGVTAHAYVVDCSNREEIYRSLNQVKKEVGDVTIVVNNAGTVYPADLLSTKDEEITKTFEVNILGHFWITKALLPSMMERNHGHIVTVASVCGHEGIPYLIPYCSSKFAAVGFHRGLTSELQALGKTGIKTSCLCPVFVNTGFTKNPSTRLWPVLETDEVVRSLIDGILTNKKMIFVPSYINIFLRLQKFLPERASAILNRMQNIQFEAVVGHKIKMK

Another experiment has as its target wild type human HSD17B13 (Homo sapiens (Human), UniProt Q7Z5P4). Put plainly: HEK_Beta-Est LCMS_IC50_Tekcel, whole-cell HEK-HSD17B13 inhibition assay, estrone production by LCMS. In kind it is cell-based. Particulars: geometric mean, HEK cells stably expressing wild type human HSD17B13, 25 μM FAC beta-estradiol, read-out: HEK_Beta-Est LCMS_IC50—Tekcel GMean IC50. In short, it runs like this:
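Readout was LCMS quantitation of estrone made from beta-estradiol with NAD+ as cofactor. Whole HEK-HSD17B13 cells were given compound for 1 hour, then the reaction for 2 hours, both at 37° C. Product area ratios were normalized to vehicle controls as zero percent effect.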

Structures are written as SMILES. Structures can show the parent of a compound that is named as a salt.

wild type human HSD17B13, sequence (Q7Z5P4 20-300): as above

As usually defined, the IC50 is the midpoint of a concentration-inhibition curve. Take `COc1ncc(-c2ccc3cn([C@H]4CC[C@H](CNC(=O)c5cc(F)c(O)c(F)c5)CC4)nc3c2)cn1` [Example 73, 3,5-difluoro-4-hydroxy-N-({(1r,4r)-4-[6-(2-methoxypyrimidin-5-yl)-2H-indazol-2-yl]cyclohexyl}methyl) benzamide]: the figures for the IC50 on HSD17B13 enzyme and at wild type human HSD17B13 were 0.013 µM and 0.17 µM, respectively.

Regarding `Cn1nc(-c2noc([C@]34CC[C@](CNC(=O)c5cc(F)c(O)c(F)c5)(CC3)CC4)n2)ccc1=O` [Example 146, 3,5-difluoro-4-hydroxy-N-({4-[3-(1-methyl-6-oxo-1,6-dihydro-pyridazin-3-yl)-1,2,4-oxadiazol-5-yl]bicyclo[2.2.2]octan-1-yl}methyl) benzamide], the IC50 at HSD17B13 enzyme was 0.0056 µM; at wild type human HSD17B13, 0.29 µM.

Consider `Cn1cc(-c2ccc3cn([C@H]4CC[C@H](CNC(=O)c5cc(F)c(O)c(F)c5)CC4)nc3c2)c(C2CC2)n1` [Example 35, N-({(1r,4r)-4-[6-(3-cyclopropyl-1-methyl-1H-pyrazol-4-yl)-2H-indazol-2-yl]cyclohexyl}methyl)-3,5-difluoro-4-hydroxybenzamide], for which the IC50 was 0.01 µM at HSD17B13 enzyme and 0.35 µM at wild type human HSD17B13.

For the molecule `O=C(NC[C@]12CC[C@](c3nc(-c4ccc(C(F)(F)F)nn4)no3)(CC1)CC2)c1cc(F)c(O)c(F)c1` [Example 143, 3,5-difluoro-4-hydroxy-[(4-{3-[6-(trifluoromethyl)pyridazin-3-yl]-1,2,4-oxadiazol-5-yl}bicyclo[2.2.2]octan-1-yl)methyl]benzamide], the results for the IC50 at HSD17B13 enzyme and at wild type human HSD17B13 were 0.013 µM and 0.18 µM, respectively.

Regarding `COc1ncc(-c2cc3nn([C@H]4CC[C@H](CNC(=O)c5cc(F)c(O)c(F)c5)CC4)cc3cn2)cn1` [Example 8, 3,5-Difluoro-4-hydroxy-N-({(1r,4r)-4-[6-(2-methoxypyrimidin-5-yl)-2H-pyrazolo[4,3-c]pyridin-2-yl]cyclohexyl}methyl)benzamide], the IC50 stood at 0.018 µM at HSD17B13 enzyme and 0.32 µM at wild type human HSD17B13.

With `COc1ccc(-c2ccc3cn([C@H]4CC[C@H](CNC(=O)c5cc(F)c(O)c(F)c5)CC4)nc3c2)cc1` [Example 67, 3,5-difluoro-4-hydroxy-N-({(1r,4r)-4-[6-(4-methoxyphenyl)-2H-indazol-2-yl]cyclohexyl}methyl) benzamide], the IC50 was 0.031 µM at HSD17B13 enzyme and 0.27 µM on wild type human HSD17B13.

In the case of `O=C(NC[C@H]1CC[C@H](n2cc3ccc(-c4cncnc4)cc3n2)CC1)c1cc(F)c(O)c(F)c1` [Example 76, 3,5-difluoro-4-hydroxy-N-({(1r,4r)-4-[6-(pyrimidin-5-yl)-2H-indazol-2-yl]cyclohexyl}methyl)benzamide], the IC50 was 0.019 µM on HSD17B13 enzyme and 0.19 µM on wild type human HSD17B13.

For the molecule `Cc1ccc(-c2ccc3cn([C@H]4CC[C@H](CNC(=O)c5cc(F)c(O)c(F)c5)CC4)nc3c2)nc1` [Example 57, 3,5-difluoro-4-hydroxy-N-({(1r,4r)-4-[6-(5-methylpyridin-2-yl)-2H-indazol-2-yl]cyclohexyl}methyl) benzamide], the figures for the 50% inhibitory concentration (IC50) on HSD17B13 enzyme and on wild type human HSD17B13 were 0.026 µM and 0.31 µM, respectively.

Turning to `O=C(NC[C@]12CC[C@](c3nc(-c4ccc(C(F)F)nc4)no3)(CC1)CC2)c1cc(F)c(O)c(F)c1` [Example 142, N-[(4-{3-[6-(difluoromethyl)pyridin-3-yl]-1,2,4-oxadiazol-5-yl}bicyclo[2.2.2]octan-1-yl)methyl]-3,5-difluoro-4-hydroxybenzamide], the IC50 was 0.01 µM on HSD17B13 enzyme and 0.16 µM at wild type human HSD17B13.

On to `O=C(NC[C@H]1CC[C@H](n2cc3cc(F)ccc3n2)CC1)c1cc(F)c(O)c(F)c1` [Example 133, 3,5-difluoro-N-{[(1r,4r)-4-(5-fluoro-2H-indazol-2-yl)cyclohexyl]methyl}-4-hydroxybenzamide, ammonium salt], for which the IC50 amounted to 0.029 µM on HSD17B13 enzyme and 0.28 µM on wild type human HSD17B13.

For the molecule `Cn1nccc1-c1ccc2cn([C@H]3CC[C@H](CNC(=O)c4cc(F)c(O)c(F)c4)CC3)nc2c1` [Example 62, 3,5-difluoro-4-hydroxy-N-({(1r,4r)-4-[6-(1-methyl-1H-pyrazol-5-yl)-2H-indazol-2-yl]cyclohexyl}methyl) benzamide], the IC50 is 0.0087 µM at HSD17B13 enzyme and 0.35 µM at wild type human HSD17B13.

For the molecule `Cn1ncc(-c2ccc3cn([C@H]4CC[C@H](CNC(=O)c5cc(F)c(O)c(F)c5)CC4)nc3c2)c1C(F)(F)F` [Example 46, 3,5-difluoro-4-hydroxy-N-{[(1r,4r)-4-{6-[1-methyl-5-(trifluoro-methyl)-1H-pyrazol-4-yl]-2H-indazol-2-yl}cyclohexyl]methyl}benzamide], the IC50 at HSD17B13 enzyme came out at 0.0095 µM; on wild type human HSD17B13, 0.45 µM.

Take `O=C(NC[C@H]1CC[C@H](n2cc3ccc(-c4cnn(C5COC5)c4)cc3n2)CC1)c1cc(F)c(O)c(F)c1` [Example 45, 3,5-difluoro-4-hydroxy-N-{[(1r,4r)-4-{6-[1-(oxetan-3-yl)-1H-pyrazol-4-yl]-2H-indazol-2-yl}cyclohexyl]methyl} benzamide]: the results for the concentration for half-maximal inhibition (IC50) at HSD17B13 enzyme and at wild type human HSD17B13 were 0.0054 µM and 0.22 µM, respectively.

Consider `O=C(NC[C@]12CC[C@](c3nc(-c4ccc(C(F)(F)F)nc4)no3)(CC1)CC2)c1cc(F)c(O)c(F)c1F` [Example 196, 2,3,5-trifluoro-4-hydroxy-N-[(4-{3-[6-(trifluoromethyl)pyridin-3-yl]-1,2,4-oxadiazol-5-yl}bicyclo[2.2.2]octan-1-yl)methyl]benzamide], for which the IC50 at HSD17B13 enzyme worked out at 0.012 µM; at wild type human HSD17B13 it was 0.34 µM.

On to `Cn1cc(-c2ccc3cn([C@H]4CC[C@H](CNC(=O)c5cc(F)c(O)c(F)c5F)CC4)nc3c2)cn1` [Example 5, 2,3,5-Trifluoro-4-hydroxy-N-({(1r,4r)-4-[6-(1-methyl-1H-pyrazol-4-yl)-2H-indazol-2-yl]cyclohexyl}methyl)benzamide, trifluoroacetate salt], for which the IC50 is over 2.5 µM at HSD17B13 enzyme and 0.072 µM on wild type human HSD17B13.

For the molecule `N#Cc1cccc(-c2ccc3cn([C@H]4CC[C@H](CNC(=O)c5cc(F)c(O)c(F)c5)CC4)nc3c2)c1` [Example 55, N-({(1r,4r)-4-[6-(3-cyanophenyl)-2H-indazol-2-yl]cyclohexyl}methyl)-3,5-difluoro-4-hydroxybenzamide], the figures for the IC50 at HSD17B13 enzyme and at wild type human HSD17B13 were 0.017 µM and 0.23 µM, respectively.

Regarding `O=C(NC[C@]12CC[C@](c3nc(-c4cnc(C(F)(F)F)cn4)no3)(CC1)CC2)c1cc(F)c(O)c(F)c1` [Example 191, 3,5-difluoro-4-hydroxy-N-[(4-{3-[5-(trifluoromethyl)pyrazin-2-yl]-1,2,4-oxadiazol-5-yl}bicyclo[2.2.2]octan-1-yl)methyl]benzamide], the IC50 amounted to 0.0097 µM on HSD17B13 enzyme and 0.12 µM on wild type human HSD17B13.

For the molecule `O=C(NC[C@H]1CC[C@H](n2cc3ccc(-c4ccncc4)cc3n2)CC1)c1cc(F)c(O)c(F)c1` [Example 61, 3,5-difluoro-4-hydroxy-N-({(1r,4r)-4-[6-(pyridin-4-yl)-2H-indazol-2-yl]cyclohexyl}methyl)benzamide], the IC50 at HSD17B13 enzyme worked out at 0.0048 µM; at wild type human HSD17B13, 0.12 µM.

For the molecule `O=C(NC[C@H]1CC[C@H](n2cc3cc(Cl)ccc3n2)CC1)c1cc(F)c(O)cc1F` [Example 145, N-{[(1r,4r)-4-(5-chloro-2H-indazol-2-yl)cyclohexyl]methyl}-2,5-difluoro-4-hydroxybenzamide, trifluoroacetate salt], the concentration for half-maximal inhibition (IC50) on HSD17B13 enzyme worked out at 0.018 µM; at wild type human HSD17B13 it was 0.26 µM.

In the case of `Cc1cnc(-c2ccc3cn([C@H]4CC[C@H](CNC(=O)c5cc(F)c(O)c(F)c5)CC4)nc3c2)nc1` [Example 74, 3,5-difluoro-4-hydroxy-N-({(1r,4r)-4-[6-(5-methylpyrimidin-2-yl)-2H-indazol-2-yl]cyclohexyl}methyl)benzamide], the concentration for half-maximal inhibition (IC50) was determined as 0.012 µM on HSD17B13 enzyme and 0.17 µM at wild type human HSD17B13.

As to `O=C(NC[C@H]1CC[C@H](n2cc(-c3ccc4nccnc4c3)nn2)CC1)c1cc(F)c(O)c(F)c1` [Example 18, 3,5-Difluoro-4-hydroxy-N-({(1r,4r)-4-[4-(quinoxalin-6-yl)-1H-1,2,3-triazol-1-yl]cyclohexyl}methyl)benzamide], the IC50 at HSD17B13 enzyme is 0.018 µM; on wild type human HSD17B13, 0.42 µM.

Take `COc1cnc(-c2noc([C@H]3CC[C@H](CNC(=O)c4cc(F)c(O)c(F)c4)CC3)n2)cn1` [Example 127, 3,5-difluoro-4-hydroxy-N-({(1r,4r)-4-[3-(5-methoxy-pyrazin-2-yl)-1,2,4-oxadiazol-5-yl]cyclohexyl}methyl) benzamide]: the half-maximal inhibitory concentration (IC50) amounted to 0.013 µM on HSD17B13 enzyme and 0.35 µM at wild type human HSD17B13.

For the molecule `O=C(NC[C@H]1CC[C@H](c2noc(-c3ccccc3)n2)CC1)c1cc(F)c(O)c(F)c1` [Example 138, 3,5-difluoro-4-hydroxy-N-{[(1r,4r)-4-(5-phenyl-1,2,4-oxadiazol-3-yl)cyclohexyl]methyl}benzamide], the IC50 on HSD17B13 enzyme was 0.016 µM; on wild type human HSD17B13, 0.2 µM.

Turning to `O=C(NC[C@H]1CC[C@H](n2cc3ccc(Cl)cc3n2)CC1)c1cc(F)c(O)c(F)c1` [Example 135, N-{[(1r,4r)-4-(6-chloro-2H-indazol-2-yl)cyclohexyl]methyl}-3,5-difluoro-4-hydroxybenzamide, ammonium salt], the IC50 came out at 0.021 µM at HSD17B13 enzyme and 0.25 µM at wild type human HSD17B13.

On to `O=C(NC[C@H]1CC[C@H](c2nc(-c3cnc(C(F)(F)F)cn3)no2)CC1)c1cc(F)c(O)c(F)c1` [Example 139, 3,5-difluoro-4-hydroxy-N-{[(1r,4r)-4-{3-[5-(trifluoromethyl)pyrazin-2-yl]-1,2,4-oxadiazol-5-yl}cyclohexyl]methyl} benzamide], for which the IC50 at HSD17B13 enzyme came to 0.022 µM; on wild type human HSD17B13, 0.41 µM.
